Legend:
hESC [1] = details: independent of feeders or recombinant growth factors; cited from earlier work
hESC [2] = experiment: TSA toxicity in hESC; assay type: cell-based, human
fibroblasts = details: added to fibroblasts, alone; cited from earlier work
hESC [3] = experiment: BMP4-induced differentiation of hESC colonies; assay type: cell-based, human; details: hESC line WA07, 100 ng/ml BMP4, 4 days; confirmed by CDX2 immunostaining
Description: Pluripotent hESC cultures, line WA07 (a, d, g, i) were compared to hESC that were differentiated in vitro for 4 days in culture with 100 ng/ml BMP4 (b, e, h, j). The squamous epithelial monolayer that was formed is trophectoderm, found in the outer shell of blastocysts and destined to form the placenta. Fixed colonies were stained with the DNA dye, Hoechst 33342 (a, b) and with antibodies to the pluripotency marker OCT4 (d) and the trophectoderm marker, CDX2 (e). Morphological differences that are characteristic of the spreading colonies include an increase in cell (c) and nuclear size (f). The Hoechst image of 4 colonies were analyzed for nuclear size and number of nuclei per colony area (average cell area) and differences between pluripotent and trophectoderm colony morphology were significant at p<0.05 by Students T test. Colony morphology in live cells (g, h), not fixed and immunostained as was performed in (a-f), is provided by the distribution of spatial frequencies in the image (i, j). […] Spatial frequencies are higher in pluripotent than in TE colonies and can be more completely measured using wavelet analysis, a generalized 2D, multiscalar measure of image texture. […] Empirical probability density functions (k-l) for three detail subbands of the line scans in (i) and (j) quantify the concept of spatial frequency. […]

For `CC(/C=C/C(=O)NO)=C\[C@@H](C)C(=O)c1ccc(N(C)C)cc1` [TSA, trichostatin A], the effect on self-renewal (hESC [1]) is given as “activates a self-renewal program in hESC” and the “highest concentration without toxic effects” value (hESC [2]) is given as 1 nM.

For “FGF2: single growth factor added to media or fibroblasts”, the “effect on expression of endogenous pluripotency markers” value (fibroblasts) is given as “increased expression of endogenous pluripotency markers”.

B1: BMP4: growth factor bone morphogenic protein, BMP4 (protein, UniProt P12644 293-408, looked up)
Bone morphogenetic protein 4: SPKHHSQRARKKNKNCRRHSLYVDFSDVGWNDWIVAPPGYQAFYCHGDCPFPLADHLNSTNHAIVQTLVNSVNSSIPKACCVPTELSAISMLYLDEYDKVVLKNYQEMVVEGCGCR
In the case of B1, the differentiation outcome (hESC [3]) is reported as “form trophectoderm”.
